The numbers were not newly measured in US6955904B2, “Gene coding for quinone oxidoreductase of kluyveromyces marxianus and protein expressed therefrom” (Korea Institute of Science and Technology, priority 2001, dated 2005), which cites them from elsewhere.

Series [1] has as its target human quinone oxidoreductase (Homo sapiens, UniProt P15559). The note with it: Siegel et al., Mol. Pharmacol. 1997.
Series [2] addresses T1, Arabidopsis thaliana quinone oxidoreductases (Arabidopsis thaliana, UniProt Q9LK88).
T1 sequence (Q9LK88 1-196): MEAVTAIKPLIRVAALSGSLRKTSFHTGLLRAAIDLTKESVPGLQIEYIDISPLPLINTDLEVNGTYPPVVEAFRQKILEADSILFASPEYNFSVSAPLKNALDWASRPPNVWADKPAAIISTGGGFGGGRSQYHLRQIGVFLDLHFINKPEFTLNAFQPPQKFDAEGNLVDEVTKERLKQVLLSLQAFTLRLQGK
The note with it: Sparla et al., FEBS Letters 1999.

Sequence of human quinone oxidoreductase (P15559 whole entry): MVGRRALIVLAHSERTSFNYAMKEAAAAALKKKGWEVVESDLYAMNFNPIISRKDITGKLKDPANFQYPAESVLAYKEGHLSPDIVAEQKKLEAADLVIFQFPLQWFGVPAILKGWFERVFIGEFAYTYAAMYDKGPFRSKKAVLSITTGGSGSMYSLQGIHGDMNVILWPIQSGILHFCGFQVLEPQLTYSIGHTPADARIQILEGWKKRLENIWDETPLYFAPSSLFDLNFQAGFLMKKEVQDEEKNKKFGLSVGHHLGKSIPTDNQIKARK

`CC1=C(C)C(=O)C(CC[C@](C)(O)CCC[C@H](C)CCC[C@H](C)CCCC(C)C)=C(C)C1=O` [α-tocopherol quinone]: the “rate constant for the reaction” value in series [1] is reported as 1.5×10^7 M^−1m^−1.

Regarding `CC1=C(C)C(=O)C(C)=C(C)C1=O` [duroquinone], the “rate constant for the reaction” value in series [2] was 3.2×10^7 M^−1m^−1.
